Test results: patent publication US20230312550A1, “N-(2-(4-CYANOTHIAZOLIDIN-3-YL)-2-OXOETHYL)-QUINOLINE-4-CARBOXAMIDES” (AstraZeneca AB, priority 2020, published 2023)
Values after ≈ are worked out from the molar mass of the structure shown.

What was measured:
hFAP (M39-A757) = hFAP (M39-A757) (Homo sapiens (Human), UniProt Q12884); assay: hFAP binding assay (surface plasmon resonance); settings: SPR, 20° C.; for hFAP Binding assay k(off) / hFAP Binding assay k(on): single cycle kinetics; for Kd: n = 1 or geometric mean n = 2-4
Chain of hFAP (M39-A757) (Q12884 39-757): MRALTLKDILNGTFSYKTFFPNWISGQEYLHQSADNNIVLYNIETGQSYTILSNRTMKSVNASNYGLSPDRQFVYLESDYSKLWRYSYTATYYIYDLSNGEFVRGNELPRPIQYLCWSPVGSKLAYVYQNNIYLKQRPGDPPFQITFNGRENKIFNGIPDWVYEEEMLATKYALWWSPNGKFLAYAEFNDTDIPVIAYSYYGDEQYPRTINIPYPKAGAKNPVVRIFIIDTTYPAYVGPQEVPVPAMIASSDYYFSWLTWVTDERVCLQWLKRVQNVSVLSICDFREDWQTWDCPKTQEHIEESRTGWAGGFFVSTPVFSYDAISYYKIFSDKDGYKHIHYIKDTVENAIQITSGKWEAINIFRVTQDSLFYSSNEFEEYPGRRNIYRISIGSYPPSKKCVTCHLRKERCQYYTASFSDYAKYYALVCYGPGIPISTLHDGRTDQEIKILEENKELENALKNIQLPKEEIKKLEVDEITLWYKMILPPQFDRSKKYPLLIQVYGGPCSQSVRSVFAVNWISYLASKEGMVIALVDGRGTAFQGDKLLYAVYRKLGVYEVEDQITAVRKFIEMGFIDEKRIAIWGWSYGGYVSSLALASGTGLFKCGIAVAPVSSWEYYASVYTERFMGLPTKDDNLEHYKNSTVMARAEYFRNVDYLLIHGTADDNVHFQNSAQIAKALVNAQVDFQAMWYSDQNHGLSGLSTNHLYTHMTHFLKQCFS

[1] = Metabolic stability in rat hepatocytes (rHep); settings: n = 1 or geometric mean of n = 2-3
[2] = Metabolic stability in human liver microsomes (HLM); settings: human
Method: Metabolic stability in HLM was measured as described in J Comput Aided Mol Des 2015, 29, 795.

FAP = FAP (Homo sapiens (Human), UniProt Q12884); assay: hFAP inhibition assay; assay type: biochemical; settings: hFAP […], Ala-Pro-AMC 20 μM; n = 1 or geometric mean n = 2-3
Chain of FAP (Q12884 38-760): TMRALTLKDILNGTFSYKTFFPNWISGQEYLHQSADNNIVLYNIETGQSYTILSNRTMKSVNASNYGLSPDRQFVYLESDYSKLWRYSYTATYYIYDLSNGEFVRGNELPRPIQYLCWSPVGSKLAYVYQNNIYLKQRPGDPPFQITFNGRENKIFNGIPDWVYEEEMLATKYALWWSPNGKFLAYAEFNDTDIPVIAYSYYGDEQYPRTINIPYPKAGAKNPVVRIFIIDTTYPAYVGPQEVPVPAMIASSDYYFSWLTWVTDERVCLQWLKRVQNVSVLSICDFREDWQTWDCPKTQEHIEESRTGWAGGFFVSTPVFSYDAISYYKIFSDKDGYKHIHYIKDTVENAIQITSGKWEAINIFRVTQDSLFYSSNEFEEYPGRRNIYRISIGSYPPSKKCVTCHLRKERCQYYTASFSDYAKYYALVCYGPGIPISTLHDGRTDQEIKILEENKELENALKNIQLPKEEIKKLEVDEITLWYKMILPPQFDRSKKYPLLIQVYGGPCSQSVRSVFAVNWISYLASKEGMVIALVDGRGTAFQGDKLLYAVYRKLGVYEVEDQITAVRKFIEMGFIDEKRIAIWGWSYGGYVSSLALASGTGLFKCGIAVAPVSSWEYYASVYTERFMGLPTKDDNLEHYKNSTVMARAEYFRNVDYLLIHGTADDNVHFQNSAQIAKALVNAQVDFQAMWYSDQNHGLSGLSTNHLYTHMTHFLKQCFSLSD
Outline: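 Compounds (10-point, 3-fold dilutions from 50 μM top) were preincubated 15 min at rt in the dark with 0.48 nM hFAP in pH 7.4 Tris/NaCl/Chaps buffer. Reaction was started with substrate (40 μM solution) and ran 30 min at rt. Read by fluorescence (340/460 nm); IC50 from one-site fit.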

[3] = target: human Fibroblast activation protein alpha (hFAP) (Homo sapiens (Human), UniProt Q12884); assay: hFAP inhibition assay (tight binders); assay type: biochemical; settings: Ala-Pro-AMC 20 μM, n = 1 or geometric mean n = 2-6; also: hFAP 2.4 pM
Chain of human Fibroblast activation protein alpha (hFAP) (Q12884 38-760): as above
Method: The plates were read on a PHERAstar® reader with excitation 340 nm and emission 460 nm. Data were analyzed in Genedata Screener®. IC50 values were determined by plotting % inhibition versus log compound concentration and using a one site dose response model.

Kinetic solubility = settings: kinetic from dmso stock
Method: Kinetic solubility was measured as described in Comput Aided Mol Des 2015, 29, 795.

[4] = target: Prolyl endopeptidase, Prolyl Oligopeptidase (hPREP) (Homo sapiens (Human), UniProt P48147); assay: hPrep inhibition assay; assay type: biochemical; settings: hPREP 0.6 nM, Z-Gly-Pro-amino-methylcoumarin 50 μM; read-out: PREP IC50
Chain of Prolyl endopeptidase, Prolyl Oligopeptidase (hPREP) (P48147 whole entry): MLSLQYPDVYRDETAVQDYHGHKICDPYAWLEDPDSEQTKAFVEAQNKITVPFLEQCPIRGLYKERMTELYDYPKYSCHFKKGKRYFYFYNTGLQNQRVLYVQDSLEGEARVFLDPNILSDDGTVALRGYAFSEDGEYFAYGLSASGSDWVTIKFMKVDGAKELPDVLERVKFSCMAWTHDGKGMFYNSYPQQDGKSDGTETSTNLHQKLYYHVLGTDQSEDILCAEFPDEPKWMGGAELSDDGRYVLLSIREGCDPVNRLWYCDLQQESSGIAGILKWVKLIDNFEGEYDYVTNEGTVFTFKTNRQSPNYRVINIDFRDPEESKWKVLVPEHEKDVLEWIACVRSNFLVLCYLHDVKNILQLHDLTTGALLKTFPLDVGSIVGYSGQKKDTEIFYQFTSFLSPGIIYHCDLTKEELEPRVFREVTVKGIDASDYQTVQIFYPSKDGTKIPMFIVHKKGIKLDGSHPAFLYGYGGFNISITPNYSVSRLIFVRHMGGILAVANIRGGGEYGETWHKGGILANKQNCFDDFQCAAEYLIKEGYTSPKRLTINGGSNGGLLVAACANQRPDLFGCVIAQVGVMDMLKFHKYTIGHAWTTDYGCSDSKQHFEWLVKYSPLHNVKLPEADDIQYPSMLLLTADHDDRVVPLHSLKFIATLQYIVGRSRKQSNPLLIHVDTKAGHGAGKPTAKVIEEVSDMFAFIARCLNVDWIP
Outline: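 Fluorogenic read-out (340 nm excitation, 460 nm emission) after 20 min at rt, using 50 μM final Z-Gly-Pro-aminomethylcoumarin and 0.6 nM final enzyme, following 15 min compound preincubation. Buffer pH 7.5 with glutathione and Triton X-100. IC50 via one-site model on % inhibition vs log concentration.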

[5] = HLM CLint, n = 1 or average of n = 2-3
[6] = Solubility, kinetic solubility, n = 1 or average of n = 2-3

SMILES | hFAP Binding assay k(off) (hFAP (M39-A757)) [s⁻¹] | hFAP Binding assay k(on) (hFAP (M39-A757)) [M⁻¹ s⁻¹] | Kd (hFAP (M39-A757)) [nM] | rHep CLint [1] [μL/min/1E6] | microsomal CLint [2, 5] [µL/min/mg] | IC50 (FAP) [nM] | IC50 [3] [nM] | solubility (Kinetic solubility; [6]) [µM] | IC50 [4] [nM] | microsomal CLint [2] [µL/min/mg] | solubility (Kinetic solubility) [µM]
C[C@H]1COCCCN1c1ccc2nccc(C(=O)NCC(=O)N3CSC[C@H]3C#N)c2c1 [Example 63, N-(2-((R)-4-Cyanothiazolidin-3-yl)-2-oxoethyl)-6-((S)-3-methyl-1,4-oxazepan-4-yl)quinoline-4-carboxamide] | 0.000059 | 4100000 | 0.03 | 30 | 180 | 0.33 | 0.19 | 690 (≈ 303 µg/mL) | 400 |  | 
C[C@@H]1CN(c2ccc3nccc(C(=O)NCC(=O)N4CSC[C@H]4C#N)c3c2)CCCO1 [Example 64, N-(2-((R)-4-Cyanothiazolidin-3-yl)-2-oxoethyl)-6-((R)-2-methyl-1,4-oxazepan-4-yl)quinoline-4-carboxamide] | 0.00015 | 1300000 | 0.12 | 29 | 56 | 0.28 | 0.085 | 130 (≈ 57.1 µg/mL) | 610 |  | 
C[C@H]1CCCN1c1ccc2nccc(C(=O)NCC(=O)N3CSC[C@H]3C#N)c2c1 [Example 65, N-(2-((R)-4-Cyanothiazolidin-3-yl)-2-oxoethyl)-6-((S)-2-methylpyrrolidin-1-yl)quinoline-4-carboxamide] | 0.00047 | 6700000 | 0.055 | 110 | 150 | 0.28 | 0.17 | 49 (≈ 20.1 µg/mL) | 100 |  | 
N#C[C@@H]1CSCN1C(=O)CNC(=O)c1ccnc2ccc(N3CCOCC3)c(Cl)c12 [Example 101, (R)-5-Chloro-N-(2-(4-cyanothiazolidin-3-yl)-2-oxoethyl)-6-morpholino-quinoline-4-carboxamide] | 0.000025 | 740000 | 0.034 | 2.3 | 8.6 | 0.38 | 0.35 | > 1000 | 380 |  | 
C[C@H]1COC[C@H](C)N1c1ccc2nccc(C(=O)NCC(=O)N3CSC[C@H]3C#N)c2c1 [Example 103, N-(2-((R)-4-Cyanothiazolidin-3-yl)-2-oxoethyl)-6-((3S,5S)-3,5-dimethyl-morpholino)quinoline-4-carboxamide] | 0.00010 | 3000000 | 0.033 | 23 | 54 | 0.31 | 0.11 | > 1000 | 580 |  | 
N#C[C@@H]1CSCN1C(=O)CNC(=O)c1ccnc2ccc(N3CCOCC34CCC4)cc12 [Example 104, (R)—N-(2-(4-cyanothiazolidin-3-yl)-2-oxoethyl)-6-(8-oxa-5-azaspiro[3.5]nonan-5-yl)quinoline-4-carboxamide] | 0.000061 | 3000000 | 0.02 | 28 |  | 0.21 | 0.081 |  | 650 | 130 | 930 (≈ 420 µg/mL)
C[C@@H]1COC[C@@H](C)N1c1ccc2nccc(C(=O)NCC(=O)N3CSC[C@H]3C#N)c2c1 [Example 105, N-(2-((R)-4-Cyanothiazolidin-3-yl)-2-oxoethyl)-6-((3R,5R)-3,5-dimethyl-morpholino)quinoline-4-carboxamide] | 0.000068 | 890000 | 0.082 | 18 | 180 | 0.37 | 0.088 | > 1000 | 590 |  | 
